Experimental data: US20080064027A1, “TEL/Etv6-mediated inhibition of cell proliferation” (priority 2002, published 2008)
Read-outs that look alike come from different tables or passages of the source.

System: Stat3-ER expressing A375 cells
Assay type: cell-based
Description: In order to understand Stat3's ability to affect cell proliferation and cell death, we have examined the profile of genes expressed upon Stat3 activation in A375 cells using oligonucleotide microarrays.
Briefly, microarray analysis was performed using HG U95A GeneChips™ (Affymetrix, Santa Clara, USA) essentially according to the manufacturer's instructions. […] RNA from three independent experiments was pooled and biotin-labeled cRNA probes were generated from each sample starting from 10 μg of total cellular RNA. The resulting biotinylated cRNAs were hybridized to the Affymetrix U95A oligonucleotide array containing more than 12,000 sequences and signals detected. Chip analysis was performed using the Affymetrix Microarray Suite v5 (target intensity 500 used for chip scaling) and GeneSpring 4.2.1 (Silicon Genetics). Changes in gene expression were assessed by looking for concordant changes between replicates using a signed Wilcoxon rank test (as recommended by Affymetrix).

Compound: CCC(=C(c1ccc(O)cc1)c1ccc(OCCN(C)C)cc1)c1ccccc1 [4HT, 4-hydroxytamoxifen, reference compound]
- expression change (fold): Absent in melanoma 2 (Avge of clones): 2.1
- expression change (fold): Alpha-1-antichymotrypsin precursor (Avge of clones): 2.5
- expression change (fold): Aquaporin 3 (Avge of clones): 5.2
- expression change (fold): Brain-derived neurotrophic factor (Avge of clones): 6.3
- expression change (fold): CCAAT/enhancer binding protein (C/EBP), delta (Avge of clones): 4.6
- expression change (fold): Cathepsin L (Avge of clones): 3.7
- expression change (fold): Cytokine receptor-like factor 1 (Avge of clones): 4.8
- expression change (fold): Death-associated protein kinase 1 (Avge of clones): 5.3
- expression change (fold): Ephrin A1 precursor (Avge of clones): 4.0
- expression change (fold): Ets variant gene 6 (Avge of clones): 4.2
- expression change (fold): Fibronectin (Avge of clones): 4.5
- expression change (fold): Fibronectin 1, isoform 1 preproprotein (Avge of clones): 5.2
- expression change (fold): Glycine dehydrogenase (decarboxylating, glycine decdarboxylase, glycine cleavage system protein P) (Avge of clones): 1.7
- expression change (fold): H. sapiens mRNA; cDNA DZFZp586N012 (Avge of clones): 2.3
- expression change (fold): I factor (complement) (Avge of clones): 2.9
- expression change (fold): Insulin-like growth factor binding protein 3 (Avge of clones): 3.9
- expression change (fold): Intercellular adhesion molecule 1 precursor (Avge of clones): 2.4
- expression change (fold): Interferon induced transmembrane protein 1 (9-27) (Avge of clones): 2.8
- expression change (fold): Interleukin 8 (Avge of clones): 4.9
- expression change (fold): Jun B proto-oncogene (Avge of clones): 3.0
- expression change (fold): KIAA0161 gene product (Avge of clones): 2.4
- expression change (fold): KIAA0303 protein (Avge of clones): 2.9
- expression change (fold): KIAA0500 protein (Avge of clones): 4.2
- expression change (fold): Killer cell lectin-like receptor subfamily C, member 2 (Avge of clones): 6.1
- expression change (fold): Killer cell lectin-like receptor subfamily C, member 3 isoform NKG2-E (Avge of clones): 10.3
- expression change (fold): Kynureninase (L-kynurenine hydrolase) (Avge of clones): 3.6
- expression change (fold): Major vault protein (Avge of clones): 2.8
- expression change (fold): Nicotinamide N-methyltransferase (Avge of clones): 2.6
- expression change (fold): Niemann-Pick disease, type C1 (Avge of clones): 2.2
- expression change (fold): Oncostatin M receptor (Avge of clones): 3.3
- expression change (fold): Osteoprotegrin (Avge of clones): 8.6
- expression change (fold): Prostatic acid phosphatase precursor (Avge of clones): 10.5
- expression change (fold): Ras-induced senescence 1 (Avge of clones): 2.4
- expression change (fold): Regenerating islet-derived 1 alpha (pancreatic stone protein, pancreatic thread protein) (Avge of clones): 4.0
- expression change (fold): Regulator of G protein signalling 16 (Avge of clones): 5.3
- expression change (fold): STAT induced STAT inhibitor 3 (Avge of clones): 9.9
- expression change (fold): Secreted phosphoprotein 1 (osteopontin, bone sialoprotein 1, early T-lymphocyte activation 1) (Avge of clones): 25.5
- expression change (fold): Serine (or cysteine) protease inhibitor, clade B (ovalbumin), member 3 (Avge of clones): 100.2
- expression change (fold): Small inducible cytokine A2 (monocyte chemotactic protein 1) (Avge of clones): 2.4
- expression change (fold): Solute carrier family 2 (facilitated glucose transporter), member 3 (Avge of clones): 2.6
- expression change (fold): Stanniocalcin 1 (Avge of clones): 6.7
- expression change (fold): Tyrosine phosphatase/TIGR = HG620-HT620 (Avge of clones): 2.2
- expression change (fold): v-fos FBJ murine osteosarcoma viral gene homologue (Avge of clones): 3.9
- expression change (fold): v-jun avian sarcoma virus 17 oncogene homologue (Avge of clones): 4.9
- expression change (fold): v-maf musculoaponeurotic fibrosarcoma oncogene homologue (avian) (Avge of clones): 1.6
- expression change (fold): Aquaporin 3 (Avge of clones, 2nd listing): 4.4
- expression change (fold): Fibronectin 1, isoform 1 preproprotein (Avge of clones, 2nd listing): 5.0
- expression change (fold): Insulin-like growth factor binding protein 3 (Avge of clones, 2nd listing): 3.1
- expression change (fold): Interleukin 8 (Avge of clones, 2nd listing): 2.6
- expression change (fold): Kynureninase (L-kynurenine hydrolase) (Avge of clones, 2nd listing): 3.3
- expression change (fold): Oncostatin M receptor (Avge of clones, 2nd listing): 3.3
- expression change (fold): Prostatic acid phosphatase precursor (Avge of clones, 2nd listing): 2.8
- expression change (fold): Secreted phosphoprotein 1 (osteopontin, bone sialoprotein 1, early T-lymphocyte activation 1) (Avge of clones, 2nd listing): 18.4
- expression change (fold): v-jun avian sarcoma virus 17 oncogene homologue (Avge of clones, 2nd listing): 4.3
- expression change (fold): Kynureninase (L-kynurenine hydrolase) (Avge of clones, 3rd listing): 2.9
- expression change (fold): Absent in melanoma 2 (Clone1): 2.2
- expression change (fold): Alpha-1-antichymotrypsin precursor (Clone1): 2.7
- expression change (fold): Aquaporin 3 (Clone1): 5.2
- expression change (fold): Brain-derived neurotrophic factor (Clone1): 8.9
- expression change (fold): CCAAT/enhancer binding protein (C/EBP), delta (Clone1): 5.6
- expression change (fold): Cathepsin L (Clone1): 3.6
- expression change (fold): Cytokine receptor-like factor 1 (Clone1): 5.2
- expression change (fold): Death-associated protein kinase 1 (Clone1): 5.7
- expression change (fold): Ephrin A1 precursor (Clone1): 2.8
- expression change (fold): Ets variant gene 6 (Clone1): 3.9
- expression change (fold): Fibronectin (Clone1): 4.3
- expression change (fold): Fibronectin 1, isoform 1 preproprotein (Clone1): 7.7
- expression change (fold): Glycine dehydrogenase (decarboxylating, glycine decdarboxylase, glycine cleavage system protein P) (Clone1): 1.8
- expression change (fold): H. sapiens mRNA; cDNA DZFZp586N012 (Clone1): 2.6
- expression change (fold): I factor (complement) (Clone1): 3.8
- expression change (fold): Insulin-like growth factor binding protein 3 (Clone1): 2.5
- expression change (fold): Intercellular adhesion molecule 1 precursor (Clone1): 2.8
- expression change (fold): Interferon induced transmembrane protein 1 (9-27) (Clone1): 3.1
- expression change (fold): Interleukin 8 (Clone1): 2.3
- expression change (fold): Jun B proto-oncogene (Clone1): 3.3
- expression change (fold): KIAA0161 gene product (Clone1): 2.5
- expression change (fold): KIAA0303 protein (Clone1): 4.2
- expression change (fold): KIAA0500 protein (Clone1): 1.6
- expression change (fold): Killer cell lectin-like receptor subfamily C, member 2 (Clone1): 9.5
- expression change (fold): Killer cell lectin-like receptor subfamily C, member 3 isoform NKG2-E (Clone1): 18.4
- expression change (fold): Kynureninase (L-kynurenine hydrolase) (Clone1): 4.0
- expression change (fold): Major vault protein (Clone1): 3.6
- expression change (fold): Nicotinamide N-methyltransferase (Clone1): 2.7
- expression change (fold): Niemann-Pick disease, type C1 (Clone1): 2.3
- expression change (fold): Oncostatin M receptor (Clone1): 4.3
- expression change (fold): Osteoprotegrin (Clone1): 12.9
- expression change (fold): Prostatic acid phosphatase precursor (Clone1): 9.3
- expression change (fold): Ras-induced senescence 1 (Clone1): 2.4
- expression change (fold): Regenerating islet-derived 1 alpha (pancreatic stone protein, pancreatic thread protein) (Clone1): 4.7
- expression change (fold): Regulator of G protein signalling 16 (Clone1): 6.9
- expression change (fold): STAT induced STAT inhibitor 3 (Clone1): 9.2
- expression change (fold): Secreted phosphoprotein 1 (osteopontin, bone sialoprotein 1, early T-lymphocyte activation 1) (Clone1): 10.8
- expression change (fold): Serine (or cysteine) protease inhibitor, clade B (ovalbumin), member 3 (Clone1): 103.0
- expression change (fold): Small inducible cytokine A2 (monocyte chemotactic protein 1) (Clone1): 2.8
- expression change (fold): Solute carrier family 2 (facilitated glucose transporter), member 3 (Clone1): 2.9
- expression change (fold): Stanniocalcin 1 (Clone1): 5.2
- expression change (fold): Tyrosine phosphatase/TIGR = HG620-HT620 (Clone1): 2.3
- expression change (fold): v-fos FBJ murine osteosarcoma viral gene homologue (Clone1): 3.6
- expression change (fold): v-jun avian sarcoma virus 17 oncogene homologue (Clone1): 3.6
- expression change (fold): v-maf musculoaponeurotic fibrosarcoma oncogene homologue (avian) (Clone1): 1.2
- expression change (fold): Aquaporin 3 (Clone1, 2nd listing): 5.7
- expression change (fold): Fibronectin 1, isoform 1 preproprotein (Clone1, 2nd listing): 6.8
- expression change (fold): Insulin-like growth factor binding protein 3 (Clone1, 2nd listing): 2.3
- expression change (fold): Interleukin 8 (Clone1, 2nd listing): 2.9
- expression change (fold): Kynureninase (L-kynurenine hydrolase) (Clone1, 2nd listing): 4.3
- expression change (fold): Oncostatin M receptor (Clone1, 2nd listing): 4.2
- expression change (fold): Prostatic acid phosphatase precursor (Clone1, 2nd listing): 3.3
- expression change (fold): Secreted phosphoprotein 1 (osteopontin, bone sialoprotein 1, early T-lymphocyte activation 1) (Clone1, 2nd listing): 16.9
- expression change (fold): v-jun avian sarcoma virus 17 oncogene homologue (Clone1, 2nd listing): 5.6
- expression change (fold): Kynureninase (L-kynurenine hydrolase) (Clone1, 3rd listing): 3.9
- expression change (fold): Absent in melanoma 2 (Clone2): 2.0
- expression change (fold): Alpha-1-antichymotrypsin precursor (Clone2): 2.3
- expression change (fold): Aquaporin 3 (Clone2): 5.1
- expression change (fold): Brain-derived neurotrophic factor (Clone2): 3.6
- expression change (fold): CCAAT/enhancer binding protein (C/EBP), delta (Clone2): 3.7
- expression change (fold): Cathepsin L (Clone2): 3.8
- expression change (fold): Cytokine receptor-like factor 1 (Clone2): 4.3
- expression change (fold): Death-associated protein kinase 1 (Clone2): 4.8
- expression change (fold): Ephrin A1 precursor (Clone2): 5.2
- expression change (fold): Ets variant gene 6 (Clone2): 4.5
- expression change (fold): Fibronectin (Clone2): 4.6
- expression change (fold): Fibronectin 1, isoform 1 preproprotein (Clone2): 2.6
- expression change (fold): Glycine dehydrogenase (decarboxylating, glycine decdarboxylase, glycine cleavage system protein P) (Clone2): 1.6
- expression change (fold): H. sapiens mRNA; cDNA DZFZp586N012 (Clone2): 2.0
- expression change (fold): I factor (complement) (Clone2): 2.0
- expression change (fold): Insulin-like growth factor binding protein 3 (Clone2): 5.4
- expression change (fold): Intercellular adhesion molecule 1 precursor (Clone2): 2.1
- expression change (fold): Interferon induced transmembrane protein 1 (9-27) (Clone2): 2.5
- expression change (fold): Interleukin 8 (Clone2): 7.4
- expression change (fold): Jun B proto-oncogene (Clone2): 2.6
- expression change (fold): KIAA0161 gene product (Clone2): 2.4
- expression change (fold): KIAA0303 protein (Clone2): 1.7
- expression change (fold): KIAA0500 protein (Clone2): 6.7
- expression change (fold): Killer cell lectin-like receptor subfamily C, member 2 (Clone2): 2.7
- expression change (fold): Killer cell lectin-like receptor subfamily C, member 3 isoform NKG2-E (Clone2): 2.2
- expression change (fold): Kynureninase (L-kynurenine hydrolase) (Clone2): 3.2
- expression change (fold): Major vault protein (Clone2): 2.0
- expression change (fold): Nicotinamide N-methyltransferase (Clone2): 2.5
- expression change (fold): Niemann-Pick disease, type C1 (Clone2): 2.2
- expression change (fold): Oncostatin M receptor (Clone2): 2.4
- expression change (fold): Osteoprotegrin (Clone2): 4.4
- expression change (fold): Prostatic acid phosphatase precursor (Clone2): 11.7
- expression change (fold): Ras-induced senescence 1 (Clone2): 2.5
- expression change (fold): Regenerating islet-derived 1 alpha (pancreatic stone protein, pancreatic thread protein) (Clone2): 3.4
- expression change (fold): Regulator of G protein signalling 16 (Clone2): 3.7
- expression change (fold): STAT induced STAT inhibitor 3 (Clone2): 10.5
- expression change (fold): Secreted phosphoprotein 1 (osteopontin, bone sialoprotein 1, early T-lymphocyte activation 1) (Clone2): 40.1
- expression change (fold): Serine (or cysteine) protease inhibitor, clade B (ovalbumin), member 3 (Clone2): 97.5
- expression change (fold): Small inducible cytokine A2 (monocyte chemotactic protein 1) (Clone2): 2.0
- expression change (fold): Solute carrier family 2 (facilitated glucose transporter), member 3 (Clone2): 2.3
- expression change (fold): Stanniocalcin 1 (Clone2): 8.3
- expression change (fold): Tyrosine phosphatase/TIGR = HG620-HT620 (Clone2): 2.1
- expression change (fold): v-fos FBJ murine osteosarcoma viral gene homologue (Clone2): 4.1
- expression change (fold): v-jun avian sarcoma virus 17 oncogene homologue (Clone2): 6.3
- expression change (fold): v-maf musculoaponeurotic fibrosarcoma oncogene homologue (avian) (Clone2): 2.0
- expression change (fold): Aquaporin 3 (Clone2, 2nd listing): 3.2
- expression change (fold): Fibronectin 1, isoform 1 preproprotein (Clone2, 2nd listing): 3.3
- expression change (fold): Insulin-like growth factor binding protein 3 (Clone2, 2nd listing): 3.9
- expression change (fold): Interleukin 8 (Clone2, 2nd listing): 2.2
- expression change (fold): Kynureninase (L-kynurenine hydrolase) (Clone2, 2nd listing): 2.4
- expression change (fold): Oncostatin M receptor (Clone2, 2nd listing): 2.5
- expression change (fold): Prostatic acid phosphatase precursor (Clone2, 2nd listing): 2.4
- expression change (fold): Secreted phosphoprotein 1 (osteopontin, bone sialoprotein 1, early T-lymphocyte activation 1) (Clone2, 2nd listing): 20.0
- expression change (fold): v-jun avian sarcoma virus 17 oncogene homologue (Clone2, 2nd listing): 3.1
- expression change (fold): Kynureninase (L-kynurenine hydrolase) (Clone2, 3rd listing): 2.0
- number of genes significantly decreased (after 24 hrs of treatment): 23 genes
- number of genes significantly increased (after 24 hrs of treatment): 154 genes
- number of genes upregulated more than two-fold (after 24 hrs of treatment): 39 genes
- SOCS3 expression (as early as 1 hr after treatment): rapidly increased
